target: LSD-1 enzyme (Homo sapiens (Human), UniProt O60341); experiment: LANCE LSD1/KDM1A demethylase assay (LSD1 histone demethylase biochemical assay); details: 1 nM LSD-1 enzyme, 1 hour preincubation at 25° C., 0.4 μM Biotin-labeled Histone H3 peptide substrate
Protocol: LSD1 Histone Demethylase Biochemical Assay
LANCE LSD1/KDM1A demethylase assay-10 μL of 1 nM LSD-1 enzyme (ENZO BML-SE544-0050) in the assay buffer (50 mM Tris, pH 7.5, 0.01% Tween-20, 25 mM NaCl, 5 mM DTT) were preincubated for 1 hour at 25° C. with 0.8 μL compound/DMSO dotted in black 384 well polystyrene plates. […] Reactions were stopped by addition of 10 μL 1× LANCE Detection Buffer (PerkinElmer CR97-100) supplemented with 1.5 nM Eu-anti-unmodified H3K4 Antibody (PerkinElmer TRF0404), and 225 nM LANCE Ultra Streptavidin (PerkinElmer TRF102) along with 0.9 mM Tranylcypromine-HCl (Millipore 616431). After stopping the reactions plates were incubated for 30 minutes and read on a PHERAstar FS plate reader (BMG Labtech).

| Compound | IC50 [nM] |
| --- | --- |
| Cc1ccc(-c2c(-c3ccc(C#N)cc3)nc(OC[C@@H]3CCCN(C)C3)c3nccn23)cc1CO [Example 70, 4-(5-[3-(hydroxymethyl)-4-methylphenyl]-8-{[(3R)-1-methylpiperidin-3-yl]methoxy}imidazo[1,2-a]pyrazin-6-yl)benzonitrile] | ≤ 50 |
| CN(C)C1CCN(c2nc(-c3ccc(C#N)cc3)c(-c3ccc4c(c3)c(CO)nn4C)n3ccnc23)CC1 [Example 110, 4-{8-[4-(dimethylamino)piperidin-1-yl]-5-[3-(hydroxymethyl)-1-methyl-1H-indazol-5-yl]imidazo[1,2-a]pyrazin-6-yl}benzonitrile] | ≤ 50 |
| Cc1ccc(-c2c(-c3ccc(C#N)cc3)nc(SC[C@@H]3CCNC3)c3nccn23)cc1 [Example 13, 4-(5-(4-methylphenyl)-8-{[(3R)-pyrrolidin-3-ylmethyl]thio}imidazo[1,2-a]pyrazin-6-yl)benzonitrile] | ≤ 50 |
| Cc1ccc(-c2c(-c3ccc(C#N)cc3)nc(N3CCCN(C)CC3)c3nccn23)cc1 [Example 18, 4-[8-(4-methyl-1,4-diazepan-1-yl)-5-(4-methylphenyl)imidazo[1,2-a]pyrazin-6-yl]benzonitrile] | ≤ 50 |
| CN(C)C1CCN(c2nc(-c3ccc(C#N)cc3)c(-c3ccc4c(c3)ncn4C)n3ccnc23)CC1 [Example 106, 4-[8-[4-(dimethylamino)piperidin-1-yl]-5-(1-methyl-1H-benzimidazol-5-yl)imidazo[1,2-a]pyrazin-6-yl]benzonitrile] | ≤ 50 |
| Cc1ccc(-c2c(-c3ccc(C#N)cc3)nc(OC[C@@H]3CCNC3)c3nc(CN4CCC4)cn23)cc1 [Example 43, 4-{2-(azetidin-1-ylmethyl)-5-(4-methylphenyl)-8-[(3R)-pyrrolidin-3-ylmethoxy]imidazol[1,2-a]pyrazin-6-yl}benzonitrile] | ≤ 50 |
| Cc1ccc(-c2c(-c3ccc(C#N)cc3)nc(OC[C@@H]3CCNC3)c3nc(CNCC4CC4)cn23)cc1 [Example 44, 4-{2-{[(cyclopropylmethyl)amino]methyl}-5-(4-methylphenyl)-8-[(3R)-pyrrolidin-3-ylmethoxy]imidazo[1,2-a]pyrazin-6-yl}benzonitrile] | ≤ 50 |
| CN1C(=O)Cc2cc(-c3c(-c4ccc(C#N)cc4)nc(N4CCC(N(C)C)CC4)c4nccn34)cnc21 [Example 111, 4-[8-[4-(dimethylamino)piperidin-1-yl]-5-(1-methyl-2-oxo-2,3-dihydro-1H-pyrrolo[2,3-b]pyridin-5-yl)imidazo[1,2-a]pyrazin-6-yl]benzonitrile] | ≤ 50 |
| CN(C)C1CCN(c2nc(-c3ccc(C#N)cc3)c(-c3ccc4c(c3)C(O)CC4)n3ccnc23)CC1 (racemic) [Example 95, 4-[8-[4-(dimethylamino)piperidin-1-yl]-5-(3-hydroxy-2,3-dihydro-1H-inden-5-yl)imidazo[1,2-a]pyrazin-6-yl]benzonitrile] | ≤ 50 |
| Cc1ccc(-c2c(-c3ccc(C#N)cc3)nc(OC[C@@H]3CCNC3)c3nc(C)cn23)cc1 [Example 33, 4-{2-methyl-5-(4-methylphenyl)-8-[(3R)-pyrrolidin-3-ylmethoxy]imidazo[1,2-a]pyrazin-6-yl}benzonitrile] | ≤ 50 |
| COC(=O)N(C)Cc1ccc(-c2c(-c3ccc(C#N)cc3)nc(OC[C@@H]3CCCN(C)C3)c3nccn23)cc1F [Example 85, methyl [4-(6-(4-cyanophenyl)-8-{[(3R)-1-methylpiperidin-3-yl]methoxy}imidazo[1,2-a]pyrazin-5-yl)-2-fluorobenzyl]methylcarbamate] | ≤ 50 |
| COc1ncc(-c2c(-c3ccc(C#N)cc3)nc(OC[C@@H]3CCCN(C)C3)c3nccn23)cc1O [Example 119, 4-(5-(5-hydroxy-6-methoxypyridin-3-yl)-8-{[(3R)-1-methylpiperidin-3-yl]methoxy}imidazo[1,2-a]pyrazin-6-yl)benzonitrile] | ≤ 50 |
| Cc1ccc(-c2c(-c3ccc(C#N)cc3)nc(OC[C@@H]3CCNC3)c3nc(CC#N)cn23)cc1 [Example 36, 4-{2-(cyanomethyl)-5-(4-methylphenyl)-8-[(3R)-pyrrolidin-3-ylmethoxy]imidazol[1,2-a]pyrazin-6-yl}benzonitrile] | ≤ 50 |
| Cc1ccc(-c2c(-c3ccc(C#N)cc3)nc(OC[C@@H]3CCNC3)c3nc(C(=O)NC4CN(C)C4)cn23)cc1 [Example 40, 6-(4-cyanophenyl)-N-(1-methylazetidin-3-yl)-5-(4-methylphenyl)-8-[(3R)-pyrrolidin-3-ylmethoxy]imidazol[1,2-a]pyrazine-2-carboxamide] | ≤ 50 |
| CN1C(=O)CCc2cc(-c3c(-c4ccc(C#N)cc4)nc(N4CCC(N(C)C)CC4)c4nccn34)ccc21 [Example 102, 4-[8-[4-(dimethylamino)piperidin-1-yl]-5-(1-methyl-2-oxo-1,2,3,4-tetrahydroquinolin-6-yl)imidazo[1,2-a]pyrazin-6-yl]benzonitrile] | ≤ 50 |
| Cc1ccc(-c2c(-c3ccc(C#N)cc3)nc(CN3CC[C@@H](N(C)C)C3)c3nccn23)cc1 [Example 5, 4-[8-{[(3R)-3-(dimethylamino)pyrrolidin-1-yl]methyl}-5-(4-methylphenyl)imidazo[1,2-a]pyrazin-6-yl]benzonitrile] | ≤ 50 |

From patent publication US10112950B2, “Substituted imidazo[1,2-a]pyrazines as LSD1 inhibitors” (Incyte Corporation, priority 2014, dated 2018)
